Data: US7037652B2, “Expression analysis of KIAA nucleic acids and polypeptides useful in the diagnosis and treatment of prostate cancer” (Wyeth, priority 2000, dated 2006)

Assays:
[1] = tested on: PSA production of LNCaP cells
[2] = tested on: PSA expression in LNCaP cells; settings: 10 nM DHT, FIG. 3A
LNCaP cells = settings: MTT assay, FIG. 1A
Description: Human prostatic cancer cell lines LNCaP, DU-145, PC-3, and Tsu-prl were obtained from ATCC. LNCaP cancer cells were maintained in humidified atmosphere of 5% CO2 in air in RPMI 1640 medium supplemented with 10% fetal calf serum (Life Technologies, Inc, Rockville, Md.), 3 mM L-glutamine, 100 μg/ml streptomycin and 100 units/ml penicillin. Other lines were maintained in DMEM containing 3 mM L-glutamine, 100 μg/ml streptomycin, 100 units/ml penicillin, and 10% FCS in humidified atmosphere of 5% CO2. To examine the effects of steroids, cells were cultured in RPMI 1640 medium containing 5% FCS treated with dextran coated charcoal (Hyclone, Logan, Utah) for 24 hs before treatment. Cells were grown in the absence or presence of 10 nM DHT for 0, 2, 4, 6, 12, 24, 48, and 72 hs. They were collected and frozen at each time point. Two hundred μl of medium were collected from each flask for PSA assay.
To verify the effect of DHT on the growth of LNCaP cells, cells at 3,000 cells/well were plated in 96-well plates for 24 hs before treatment with DHT. After 72 hs, MTT was added to each well and incubated at 37° C. for four hs. At the end of incubation, the supernatant was removed and 100 μl DMSO was added to each well to dissolve […]. Plates were subsequently read in a plate reader at […].

[3] = tested on: KIAA 96 expression in LNCaP cells; settings: 10 nM DHT, 24 hours, FIG. 3C
[4] = tested on: Prostatic Acid Phosphatase (PAcP) in LNCaP; settings: cited from earlier work
[5] = tested on: KIAA 18 expression in LNCaP cells; settings: 10 nM DHT

Q: Which results are given for `C[C@]12CCC(=O)C[C@@H]1CC[C@@H]1[C@@H]2CC[C@]2(C)[C@@H](O)CC[C@@H]12` [DHT, dihydrotestosterone]?
A: PSA production [1]: increased in a dose-dependent manner; time at which PSA signal was first detected [1]: 12 h; time of maximal PSA level [1]: about 48 hs; PSA expression increase relative to control ([2]; 12 hours): 3 fold; PSA expression induction relative to control ([2]; 72 hours): approximately 4 fold; growth of LNCaP cells (LNCaP cells): stimulated; KIAA 96 expression down relative to baseline [3]: 6 fold; PAcP expression [4]: suppressed; time at which KIAA 18 induction began [5]: 12 h; KIAA 18 over-expression relative to control ([5]; 24 hours, FIG. 3B): 2 fold; KIAA 18 induction relative to baseline ([5]; 72 hours): 3 fold
